Results as given in patent publication US5264429A, “2-spirocyclopropyl cephalosporin sulfone derivatives” (SynPhar Laboratories, Inc., priority 1991, dated 1993).
Like-named read-outs stand apart in the source and are kept apart here.

Experiments:
thrombin = target: T1, thrombin (Homo sapiens, UniProt P00734); experiment: Inhibition of thrombin (THR); type: biochemical; conditions: pH 8.6, 10 minute preincubation, 22° C.
T1 construct: from tissue; host or cells: human plasma
Protocol: (§1) HLE, CTG, PPE and CTD were tested at 30° C. and the others were
(§2) TRY, trypsin; THR, thrombin; PTH, plasmin; CTC, cathepsin C; ATM,
Enzyme: Purified thrombin from human plasma
Substrate: Tosyl-glycyl-L-prolyl-L-arginine-p-NA acetate
Reaction mixture: 50 mM Tricine-NaOH buffer (pH 8.6), 500 mM NaCl, 0.1% Polyethyleneglycol 8000, 10% DMSO, 0.5 mM Substrate.
(§3) Except for Cathepsin D, the enzyme activities were determined by monitoring the increase in absorbance at 410 nm caused by the hydrolysis of chromogenic substrates. The activity of Cathepsin D was determined by monitoring the absorbance of 5% trichloroacetic acid-soluble material at 280 nm.
(§4) Inhibition of enzymes by the compounds described were determined after a 10 minute preincubation with enzymes in reaction mixtures minus substrate. Reactions were initiated by the addition of substrates. The concentration used for assays were porcine pancreatic elastase at 240 nM and human Cathepsin G at 50 nM. Cathepsin D was used at the concentration that produced approximately 0.15 O.D. increase per 20 min at 280 nm under the standard conditions. All other proteases were assayed at the concentrations that produced approximately 0.1 O.D. change per minute at 410 nm under the standard conditions.

plasmin = target: T2, plasmin (Homo sapiens, UniProt P00747); experiment: Inhibition of plasmin (PTH); type: biochemical; conditions: pH 8.9, 10 minute preincubation, 22° C.
T2 construct: from tissue; host or cells: human plasma
T2 sequence (P00747 581-810 limits assumed): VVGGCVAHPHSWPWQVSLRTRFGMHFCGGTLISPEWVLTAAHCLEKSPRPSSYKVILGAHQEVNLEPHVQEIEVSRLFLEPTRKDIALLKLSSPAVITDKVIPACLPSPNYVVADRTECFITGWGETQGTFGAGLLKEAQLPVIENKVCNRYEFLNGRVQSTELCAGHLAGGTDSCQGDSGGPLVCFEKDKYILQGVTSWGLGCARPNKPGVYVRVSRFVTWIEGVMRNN
T2 sequence (P00747 97-580 partner limits assumed): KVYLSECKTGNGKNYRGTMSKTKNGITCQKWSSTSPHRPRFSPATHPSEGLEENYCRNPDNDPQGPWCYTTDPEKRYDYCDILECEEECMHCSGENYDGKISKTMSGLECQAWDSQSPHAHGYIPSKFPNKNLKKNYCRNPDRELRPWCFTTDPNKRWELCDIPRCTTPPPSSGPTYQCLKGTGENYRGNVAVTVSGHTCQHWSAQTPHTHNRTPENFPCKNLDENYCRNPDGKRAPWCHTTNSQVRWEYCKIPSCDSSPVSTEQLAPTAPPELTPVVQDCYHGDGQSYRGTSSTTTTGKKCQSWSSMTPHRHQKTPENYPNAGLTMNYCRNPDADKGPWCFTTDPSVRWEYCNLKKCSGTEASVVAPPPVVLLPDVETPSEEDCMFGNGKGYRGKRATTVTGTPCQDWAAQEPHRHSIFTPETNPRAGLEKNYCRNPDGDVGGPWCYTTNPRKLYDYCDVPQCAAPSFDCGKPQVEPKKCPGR
Protocol: as §1, §2
Enzyme: Purified plasmin from human plasma Substrate: Tosyl-glyclyl-L-prolyl-L-lysine-pNA acetate
Reaction mixture: 50 mM Tris-HCl buffer (pH 8.9), 500 mM NaCl, 5% DMSO, 0.5 mM Substrate.
as §3, §4

[1] = target: T3, porcine pancreatic elastase (Sus scrofa, UniProt P00772); experiment: Inhibition of porcine pancreatic elastase (PPE); type: biochemical; conditions: porcine pancreatic elastase 240 nM, pH 8.9, 10 minute preincubation, 30° C.
T3 construct: from tissue; host or cells: porcine pancreas
T3 sequence (P00772 27-266): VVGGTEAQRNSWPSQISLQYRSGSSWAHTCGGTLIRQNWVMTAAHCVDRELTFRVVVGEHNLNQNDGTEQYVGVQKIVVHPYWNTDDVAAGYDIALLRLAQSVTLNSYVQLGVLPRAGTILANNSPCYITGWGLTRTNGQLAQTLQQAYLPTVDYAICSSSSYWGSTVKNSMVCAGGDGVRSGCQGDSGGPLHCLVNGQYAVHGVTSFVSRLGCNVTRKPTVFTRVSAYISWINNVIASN
Protocol: as §1
aminopeptidase M; CTG, cathespin G; CTD, cathespin D; PPE, porcine
Porcine pancreatic Elastase (PPE)
Enzyme: Purified elastase from porcine pancreas
Substrate: MeO-succinyl-L-alanyl-L-alanyl-L-prolyl-L-valine-pNA
Reaction mixture: 50 mM Tris[Tris(hydroxymethyl) aminomethane]. HCl buffer (pH 8.9), 500 mM NaCl, 10% DMSO, 1.4 mM Substrate.
as §3, §4

cathepsin C = target: T4, cathepsin C (Bos taurus, UniProt Q3ZCJ8); experiment: Inhibition of cathepsin C (CTC); type: biochemical, bovine
T4 construct: from tissue; host or cells: bovine spleen
T4 sequence (Q3ZCJ8 231-394 limits assumed): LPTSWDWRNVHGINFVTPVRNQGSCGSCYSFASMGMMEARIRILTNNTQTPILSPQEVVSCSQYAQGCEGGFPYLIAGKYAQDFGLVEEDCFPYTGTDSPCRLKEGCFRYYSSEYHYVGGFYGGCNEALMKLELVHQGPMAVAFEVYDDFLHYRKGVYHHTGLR
T4 sequence (Q3ZCJ8 395-463 limits assumed): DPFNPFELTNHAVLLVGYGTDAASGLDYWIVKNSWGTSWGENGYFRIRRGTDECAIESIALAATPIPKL
T4 sequence (Q3ZCJ8 25-134 limits assumed): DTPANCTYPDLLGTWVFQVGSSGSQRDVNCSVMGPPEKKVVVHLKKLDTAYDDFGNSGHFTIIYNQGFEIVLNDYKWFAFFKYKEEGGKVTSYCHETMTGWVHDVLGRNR
Protocol: as §1, §2
Enzyme: Purified cathepsin C from bovine spleen
Substrate: Glycyl-L-phenylalanine-pNA
Reaction mixture: 50 mM Citrate buffer (pH 5.4), 5 mM B-Mercaptoethanol, 150 mM NaCl, 10% DMSO, 20 mM Substrate.
as §3, §4

[2] = target: T5, human leukocyte elastase (HLE) (Homo sapiens, UniProt P08246); experiment: Enzyme Assay for Inhibition of HLE; type: biochemical; conditions: HLE 10 nM, pH 7.6, 10 minute preincubation, 30° C.
T5 construct: from tissue; host or cells: human white blood cells
T5 sequence (P08246 30-247 limits assumed): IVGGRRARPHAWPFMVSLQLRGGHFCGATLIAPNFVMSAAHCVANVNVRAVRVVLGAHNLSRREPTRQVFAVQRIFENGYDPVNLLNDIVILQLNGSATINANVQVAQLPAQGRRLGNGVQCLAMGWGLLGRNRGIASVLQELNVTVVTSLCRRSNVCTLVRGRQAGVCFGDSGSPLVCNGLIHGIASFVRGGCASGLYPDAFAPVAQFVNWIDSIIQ
Protocol: Enzyme Assay for Inhibition of HLE:
Enzyme: Purified elastase from human white blood cells.
Substrate: MeO-succinyl-L-alanyl-L-alanyl-L-prolyl-L-valine-p-nitro-anilide(NA).
Reaction Mixture: 10 mM phosphate buffer (pH 7.6), 500 mM NaCl, 10% dimethylsulfoxide (DMSO), 0.35 mM substrate.
The enzyme activity was determined by monitoring the increase in absorbance at 410 nm caused by the hydrolysis of chromogenic substrates. Inhibition of enzyme by the compounds described were determined after a 10 minute preincubation with the enzyme in reaction mixture minus substrate. Reaction was initiated by the addition of substrate. The concentration of human leukocyte elastase used for assay was at 10 nM.
HLE, CTG, PPE and CTD were tested at 30° C. and the others were […]

cathepsin G = target: T6, cathepsin G (Homo sapiens, UniProt P08311); experiment: Inhibition of cathepsin G (CTG); type: biochemical
T6 construct: from tissue; host or cells: human white blood cells
T6 sequence (P08311 21-244 limits assumed): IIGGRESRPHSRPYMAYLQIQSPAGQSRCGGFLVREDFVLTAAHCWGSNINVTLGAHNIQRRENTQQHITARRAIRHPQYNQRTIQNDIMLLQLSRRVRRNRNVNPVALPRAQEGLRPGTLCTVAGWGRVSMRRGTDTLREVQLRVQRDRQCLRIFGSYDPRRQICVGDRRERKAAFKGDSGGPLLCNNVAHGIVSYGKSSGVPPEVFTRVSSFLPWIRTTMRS
Protocol: Enzyme: Purified Cathepsin G from human white blood cells
Substrate: N-succinyl-L-alanyl-L-alanyl-L-phenylalanyl-L-phenylalanine -p-NA.
Reaction mixture: 10 mM Phosphate buffer (pH 7.5), 500 mM NaCl, 10% DMSO, 2.0 mM Substrate.

trypsin = target: T7, trypsin (Bos taurus, UniProt P00760); experiment: Inhibition of trypsin (TRY); type: biochemical, bovine
T7 construct: from tissue; host or cells: bovine pancreas
T7 sequence (P00760 24-246): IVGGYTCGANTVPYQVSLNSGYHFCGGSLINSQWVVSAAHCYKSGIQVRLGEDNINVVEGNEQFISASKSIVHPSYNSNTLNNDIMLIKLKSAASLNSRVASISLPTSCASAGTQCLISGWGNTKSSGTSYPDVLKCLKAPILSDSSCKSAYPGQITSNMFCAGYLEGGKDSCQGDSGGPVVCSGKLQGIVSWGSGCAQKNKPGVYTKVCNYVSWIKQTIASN

[3] = trypsin, pH 8.8, 10 minute preincubation, 22° C., read-out: IC50 TRY (converted)
[4] = cathepsin C, pH 5.4, 10 minute preincubation, 22° C., read-out: IC50 CTC
[5] = cathepsin G 50 nM, pH 7.5, 10 minute preincubation, 30° C., read-out: IC50 CTG (converted)

SMILES | IC50 (thrombin) [µM] | IC50 (plasmin) [µM] | IC50 [1] [µM] | IC50 (cathepsin C) [µM] | IC50 [2] [µM] | IC50 (cathepsin G) [µM] | IC50 (trypsin; [3]) [µM] | IC50 (cathepsin C; [4]) [µM] | IC50 (cathepsin G; [5]) [µM] | IC50 (trypsin) [µM]
CO[C@H]1C(=O)N2C(C(=O)N3CCCC3)=C(C)C3(CC3(c3ccccc3)c3ccccc3)S(=O)(=O)[C@H]12 (stereo partly drawn) [Example 10, 7α-Methoxy-2-spiro (2',2'-diphenyl)cyclopropyl-3-methyl-3-cephem-4-pyrrolidine carboxamide-1,1-dioxide] | > 40 | > 40 | 0.0832 | – | 0.0447 | – | > 35.9 | > 9.99 | > 30.9 | –
CC1=C(C(=O)N2CCCC2)N2C(=O)[C@H](Br)[C@H]2S(=O)(=O)C12CC2(c1ccccc1)c1ccccc1 (stereo partly drawn) [Example 6, 7α Bromo-2-spiro(2',2'-diphenyl)cyclopropyl-3-methyl-3-cephem-4-pyrrolidine carboxamide-1,1-dioxide] | > 39 | > 39 | 0.203 | – | 0.0107 | – | > 39 | > 9.77 | > 39 | –
CC1=C(C(=O)OC(c2ccccc2)c2ccccc2)N2C(=O)[C@H](Br)[C@H]2S(=O)(=O)C12CC2(c1ccccc1)c1ccccc1 (single isomer, unassigned) [Example 2, benzhydryl 7α-bromo-2-spiro(2', 2'-diphenyl) cyclopropyl-3-methyl-3-cephem-4-carboxylate-1,1-dioxide] | > 40 | 3.21 | 0.0183 | – | 0.0336 | – | > 37 | > 38.5 | > 16.2 | –
CO[C@H]1C(=O)N2C(C(=O)OCC(Cl)(Cl)Cl)=C(C)C3(CC3(c3ccccc3)c3ccccc3)S(=O)(=O)[C@H]12 (stereo partly drawn) [Example 8, 2,2,2-Trichloroethyl-7α-methoxy-2-spiro(2',2'-diphenyl) cyclopropyl-3-methyl-3-cephem-4-carboxylate-1,1-dioxide] | > 9.98 | 1.3 | 0.0228 | > 9.98 | 0.00438 | – | 0.648 | – | 0.403 | –
CC1=C(C(=O)OC(c2ccccc2)c2ccccc2)N2C(=O)[C@H](Br)[C@H]2S(=O)(=O)C12CC2(c1ccc(Cl)cc1)c1ccc(Cl)cc1 (single isomer, unassigned) [Example 12, Benzhydryl 7α-bromo-2-spiro [2',2'-(4',4'-dichloro)diphenyl]cyclopropyl-3-methyl-3-cephem-4-carboxylate-1,1-dioxide] | > 55.3 | 2.21 | 0.235 | > 55.3 | 0.0101 | – | – | – | 19.4 | 55.3
CC1=C(C(=O)OC(c2ccccc2)c2ccccc2)N2C(=O)[C@H](Cl)[C@H]2S(=O)(=O)C12CC2(c1ccccc1)c1ccccc1 (single isomer, unassigned) [Example 1, Benzhydryl 7α-chloro-2-spiro(2',2'-diphenyl) cyclopropyl-3-methyl-3-cephem-4-carboxylate-1,1-dioxide] | > 40 | 3.61 | 0.0328 | – | 0.00475 | – | > 60 | > 60 | 20 | –
CCOC(=O)C1CC12C(C)=C(C(=O)OC(c1ccccc1)c1ccccc1)N1C(=O)[C@H](Br)[C@H]1S2(=O)=O (stereo partly drawn) [Example 13 (1), Benzhydryl 7α-bromo-2-spiro(2'-ethoxycarbonyl)cyclopropyl-3-methyl-3-cephem-4-carboxylate-1,1-dioxide] | > 40 | 11 | 0.0313 | > 40 | 0.0644 | – | 0.58 | – | 13 | –
CO[C@H]1C(=O)N2C(C(=O)OC(c3ccccc3)c3ccccc3)=C(C)C3(CC3(c3ccccc3)c3ccccc3)S(=O)(=O)[C@H]12 (stereo partly drawn) [Example 9, Benzhydryl 7α-methoxy-2-spiro (2',2'-diphenyl) cyclopropyl-3-methyl-3-cephem-4-carboxylate-1,1-dioxide] | > 10 | 8.8 | 0.0545 | > 10 | 0.00363 | – | – | – | > 10 | > 10

Next, values leading:

IC50 (thrombin) [µM] | IC50 (plasmin) [µM] | IC50 [1] [µM] | IC50 (cathepsin C) [µM] | IC50 [2] [µM] | IC50 (cathepsin G) [µM] | IC50 (trypsin; [3]) [µM] | IC50 (cathepsin C; [4]) [µM] | IC50 (cathepsin G; [5]) [µM] | IC50 (trypsin) [µM] | SMILES
> 40 | 5.5 | 0.0557 | > 40 | 0.00473 | 40 | 0.147 | – | – | – | CC1=C(C(=O)OC(c2ccccc2)c2ccccc2)N2C(=O)[C@H](Br)[C@H]2S(=O)(=O)C12CC2(C)c1ccccc1 (stereo partly drawn) [Example 13 (2), Benzhydryl 7α-bromo-2-spiro(2'-phenyl-2'-methyl) cyclopropyl-3-methyl-3-cephem-4-carboxylate-1,1-dioxide]
> 41.9 | 5.51 | 0.0937 | – | 0.00496 | – | > 40 | > 40 | 40 | – | CC1=C(C(=O)OC(C)(C)C)N2C(=O)[C@H](Br)[C@H]2S(=O)(=O)C12CC2(c1ccccc1)c1ccccc1 (stereo partly drawn) [Example 3, t-Butyl 7α-bromo-2-spiro(2',2'-diphenyl) cyclopropyl-3-methyl-3-cephem 4-carboxylate-1,1-dioxide]
> 40 | 3.19 | 0.0637 | > 40 | 0.00507 | – | – | – | 19 | > 40 | CC1=C(C(=O)OC(c2ccccc2)c2ccccc2)N2C(=O)[C@H](Br)[C@H]2S(=O)(=O)C12CC2(c1ccc(F)cc1)c1ccc(F)cc1 (single isomer, unassigned) [Example 13, Benzhydryl 7α-bromo-2-spiro[2',2'-(4',4'-difluoro)diphenyl] cyclopropyl-3-methyl-3-cephem-4-carboxylate-1,1-dioxide]
> 10 | > 10 | 0.0161 | – | 0.00547 | – | > 10 | > 10 | 0.32 | – | CCO[C@H]1C(=O)N2C(C(=O)OCC(Cl)(Cl)Cl)=C(C)C3(CC3(c3ccccc3)c3ccccc3)S(=O)(=O)[C@H]12 (stereo partly drawn) [Example 7, 2,2,2-Trichloroethyl-7α-ethoxy-2-spiro(2',2'-diphenyl)cyclo-propyl-3-methyl-3-cephem-4-carboxylate-1,1-dioxide]
